Experimental findings from BindingDB's records for doi:10.7270/Q26W98HW (Burnham Center For Chemical Genomics, 2009) are described below.

SMILES strings stand for the structures.

The assay deals with Eukaryotic translation initiation factor 4H (Homo sapiens, UniProt Q15056). In words: human eIF4H binding inhibitors, primary screen, translation initiation inhibitor project, biochemical, uHTS, fluorescence polarization (AID 2012). On the technique in general: In fluorescence polarisation assays a small probe gives low polarisation when free and higher when bound to something large.
One may read the IC50 as the concentration that gives 50% inhibition. Read a low IC50 as inhibition by little substance. On to `COc1cc(C)cc(C(=O)O)c1C1C(=O)C(=O)c2c(O)cccc2C1=O` (centres undefined) [MLS000877007], for which the IC50 was found to be 5.43 µM.
The value for `CCn1c(=NC(=O)c2ccc(-n3c(O)ccc3O)cc2)sc2c(OC)ccc(OC)c21` [4-[2,5-bis(oxidanylidene)pyrrolidin-1-yl]-N-(3-ethyl-4,7-dimethoxy-1,3-benzothiazol-2-ylidene)benzamide] was 14.7 µM; that for `COc1ccc2c(c1)=C(NNC(=O)Cc1cccs1)C(=O)N=2` was 11 µM; that for `CC1=NC(=O)NC(c2ccco2)C1C(=O)OC(C)C` (centres undefined) [SMR000120838] was 34.7 µM.
The value for `O=C(O)c1ccc(N=NCc2cc3c(cc2[N+](=O)[O-])OCO3)cc1` was 21.8 µM.
`CC[N+](C)(CC)CCCC(N=O)C(O)(c1ccccc1)c1ccccc1` (centres undefined) [diethyl-(5-hydroxy-4-hydroxyimino-5,5-diphenylpentyl)-methylammonium;iodide] came in with an IC50 of 100 µM.
The value for `O=C1N=c2ccccc2=C1NNC(=O)c1cc(-c2cccs2)n[nH]1` [N'-(2-oxoindol-3-yl)-5-thiophen-2-yl-1H-pyrazole-3-carbohydrazide] was 11.5 µM.
`COc1ccc(CN=Nc2nc(O)c(CC(=O)O)s2)cc1OCc1ccc(Cl)cc1Cl` [[2-({3-[(2,4-dichlorobenzyl)oxy]-4-methoxybenzylidene}hydrazono)-4-oxo-1,3-thiazolidin-5-yl]acetic acid] returned an IC50 of 14.7 µM.
Consider `CC1(C)Oc2ccc3ccc(=O)oc3c2C(CN=O)=C1Cl` [9-chloro-2-keto-8,8-dimethyl-pyrano[2,3-f]chromene-10-carbaldehyde oxime], for which the IC50 worked out at 100 µM. This IC50 is about 6.8-fold higher than that of the compound before.
